The values that follow come from US8946282B2, “Indolin-2-one derivatives as protein kinase inhibitors” (Annji Pharmaceutical Co., Ltd., priority 2012, dated 2015).

In one series the target is T1, FLT-3 (Homo sapiens, UniProt P36888).
T1 sequence (P36888 27-993): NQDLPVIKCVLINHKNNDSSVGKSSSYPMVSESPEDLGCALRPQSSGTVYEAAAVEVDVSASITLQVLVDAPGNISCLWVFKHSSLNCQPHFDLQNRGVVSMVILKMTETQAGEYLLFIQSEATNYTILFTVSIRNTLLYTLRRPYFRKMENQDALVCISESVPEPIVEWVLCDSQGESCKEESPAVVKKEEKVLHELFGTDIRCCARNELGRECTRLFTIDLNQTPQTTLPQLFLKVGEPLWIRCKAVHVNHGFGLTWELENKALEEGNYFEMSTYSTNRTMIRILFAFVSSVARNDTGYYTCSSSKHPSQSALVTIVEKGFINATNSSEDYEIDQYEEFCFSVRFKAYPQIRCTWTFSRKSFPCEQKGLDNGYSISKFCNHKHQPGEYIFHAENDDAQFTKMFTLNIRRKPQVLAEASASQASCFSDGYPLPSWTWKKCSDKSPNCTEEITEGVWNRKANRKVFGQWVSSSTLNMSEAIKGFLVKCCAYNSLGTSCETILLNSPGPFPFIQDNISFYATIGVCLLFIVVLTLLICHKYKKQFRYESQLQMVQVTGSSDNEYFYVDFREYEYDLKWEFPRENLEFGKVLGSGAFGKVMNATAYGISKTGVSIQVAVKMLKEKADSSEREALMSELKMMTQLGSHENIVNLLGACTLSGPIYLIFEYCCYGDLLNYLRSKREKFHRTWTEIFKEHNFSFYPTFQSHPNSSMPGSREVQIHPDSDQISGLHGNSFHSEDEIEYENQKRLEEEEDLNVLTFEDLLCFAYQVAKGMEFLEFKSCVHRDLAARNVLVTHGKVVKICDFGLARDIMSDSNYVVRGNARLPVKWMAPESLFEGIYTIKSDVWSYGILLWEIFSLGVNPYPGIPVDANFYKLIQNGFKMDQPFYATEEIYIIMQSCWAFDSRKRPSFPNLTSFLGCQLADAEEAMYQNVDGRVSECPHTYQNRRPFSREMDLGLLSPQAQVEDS
As to the kind of experiment: radioisotope-based P81 filter-binding assay, FLT-3 kinase. Conditions: for IC50: averaged from two independent dose-response curves, read-out: Enzyme assay IC50 FLT-3. Format: biochemical. On the procedure:
(§1) Compounds of formula (I)-(IV) were evaluated for abilities in inhibiting protein kinases aurora B and FLT-3 activity using radioisotope-based P81 filter-binding assay (Table 1).

The next series has as its target aurora B (Homo sapiens, UniProt Q96GD4). As to the kind of experiment: radioisotope-based P81 filter-binding assay, aurora B kinase. It counts as biochemical. The conditions noted are these: for IC50: averaged from two independent dose-response curves, read-out: Enzyme assay IC50 Aur B. As for the experimental part:
as §1

Sequence of aurora B (Q96GD4 whole entry): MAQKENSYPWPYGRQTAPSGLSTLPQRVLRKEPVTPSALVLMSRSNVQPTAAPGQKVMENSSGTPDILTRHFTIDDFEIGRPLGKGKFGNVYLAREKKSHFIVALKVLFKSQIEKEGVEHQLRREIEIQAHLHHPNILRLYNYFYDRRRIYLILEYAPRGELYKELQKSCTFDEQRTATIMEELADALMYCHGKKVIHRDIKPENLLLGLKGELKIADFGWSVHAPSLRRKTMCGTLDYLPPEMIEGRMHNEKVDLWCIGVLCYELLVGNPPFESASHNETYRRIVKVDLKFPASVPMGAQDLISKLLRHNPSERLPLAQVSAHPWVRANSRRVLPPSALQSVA

By IC50 is commonly meant the concentration that inhibits the measured activity by half. As a reminder, the melting point is the temperature of the solid-liquid transition. `COc1ccc(C(=O)NC(=O)Nc2ccc3c(c2)NC(=O)/C3=C\c2[nH]c(C)c(CCC(=O)N3CCN(C)CC3)c2C)c(F)c1` [D65, (Z)—N-(3-((3,5-dimethyl-4-(3-(4-methylpiperazin-1-yl)-3-oxopropyl)-1H-pyrrol-2-yl)methylene)-2-oxoindolin-6-ylcarbomoyl)-2-fluoro-4-methoxybenzamide]: the melting point is 229 to 234 °C (dec.). In addition, the IC50 on FLT-3 came to 41.4 nM. Further, the IC50 on aurora B worked out at 18.4 nM.
In the case of `COc1ccc(C(=O)NC(=O)Nc2ccc3c(c2)NC(=O)/C3=C\c2[nH]c(C)c(C(=O)N3CCOCC3)c2C)c(F)c1` [D66, (Z)—N-(3-((3,5-dimethyl-4-(morpholine-4-carbonyl)-1H-pyrrol-2-yl)methylene)-2-oxoindolin-6-ylcarbamoyl)-2-fluoro-4-methoxybenzamide], the melting point is 273 to 278 °C (dec.). The half-inhibitory concentration (IC50) at FLT-3 came out at 79.5 nM. Moreover, at aurora B, the IC50 came to 16.8 nM.
Taken in the same sequence, the figures for `COc1ccc(C(=O)NC(=O)Nc2ccc3c(c2)NC(=O)/C3=C\c2[nH]c(C)c(CCC(=O)N3CCOCC3)c2C)c(F)c1` [D67] were 248 to 253 °C (dec.), 106 nM and 16.4 nM.
For `CN1CCN(C(=O)Nc2ccc3c(c2)NC(=O)/C3=C\c2ccc[nH]2)C1=O` [D80, (Z)—N-(3-((1H-pyrrol-2-yl)methylene)-2-oxoindolin-6-yl)-3-methyl-2-oxoimidazolidine-1-carboxamide], the melting point is 267 to 272 °C (dec.). The IC50 on FLT-3 came out at 70.6 nM. Further, the 50% inhibitory concentration (IC50) on aurora B stood at 1100 nM.
Turning to `O=C1Nc2cc(NC(=O)N3CCN(C4CC4)C3=O)ccc2/C1=C/c1ccc[nH]1` [D81, (Z)—N-(3-((1H-pyrrol-2-yl)methylene)-2-oxoindolin-6-yl)-3-cyclopropyl-2-oxoimidazolidine-1-carboxamide], the melting point was 284 to 289 °C (dec.). Further, the half-maximal inhibitory concentration (IC50) at FLT-3 was determined as 1800 nM. The 50% inhibitory concentration (IC50) on aurora B worked out at 19.9 nM.
In turn, `O=C1Nc2cc(NC(=O)N3CCN(C4CC4)C3=O)c(F)cc2/C1=C/c1ccc[nH]1` [D82, (Z)—N-(3-((1H-pyrrol-2-yl)methylene)-5-fluoro-2-oxoindolin-6-yl)-3-cyclopropyl-2-oxoimidazolidine-1-carboxamide] gave a melting point greater than 300 °C. The IC50 on FLT-3 came out at 3330 nM. In addition, the IC50 at aurora B was found to be 10.7 nM.
`O=C1Nc2cc(NC(=O)N3CCN(c4ccccc4)C3=O)ccc2/C1=C/c1ccc[nH]1` [D83, (Z)—N-(3-((1H-pyrrol-2-yl)methylene)-2-oxoindolin-6-yl)-2-oxo-3-phenylimidazolidine-1-carboxamide]: the melting point is 294 to 299 °C (dec.). Further, the IC50 at FLT-3 was 359 nM. Moreover, the IC50 on aurora B was determined as 17.3 nM.
Compound `O=C1Nc2cc(NC(=O)N3CCN(c4ccc(Cl)cc4)C3=O)ccc2/C1=C/c1ccc[nH]1` [D84, (Z)—N-(3-((1H-pyrrol-2-yl)methylene)-2-oxoindolin-6-yl)-3-(4-chlorophenyl)-2-oxoimidazolidine-1-carboxamide] showed a melting point greater than 300 °C. Moreover, the IC50 on FLT-3 amounted to 854 nM. At aurora B, the IC50 is greater than 10000 nM.
The compound `O=C1Nc2cc(NC(=O)N3CCN(c4cccc(Cl)c4)C3=O)ccc2/C1=C/c1ccc[nH]1` [D85, (Z)—N-(3-((1H-pyrrol-2-yl)methylene)-2-oxoindolin-6-yl)-3-(3-chlorophenyl)-2-oxoimidazolidine-1-carboxamide] displayed a melting point greater than 300 °C. For the same compound, on FLT-3, the IC50 was found to be 1790 nM. For the same compound, the half-maximal inhibitory concentration (IC50) on aurora B is 14.3 nM.
Compound `O=C1Nc2cc(NC(=O)N3CCN(c4ccc(Cl)c(Cl)c4)C3=O)ccc2/C1=C/c1ccc[nH]1` [D86, (Z)—N-(3-((1H-pyrrol-2-yl)methylene)-2-oxoindolin-6-yl)-3-(3,4-dichlorophenyl)-2-oxoimidazolidine-1-carboxamide] displayed a melting point greater than 300 °C. Also, the concentration for half-maximal inhibition (IC50) on FLT-3 came to 501 nM. For the same compound, on aurora B, the half-inhibitory concentration (IC50) is 145 nM.
On to `O=C1Nc2cc(NC(=O)N3CCN(c4ccc(Cl)c(C(F)(F)F)c4)C3=O)ccc2/C1=C/c1ccc[nH]1` [D87, (Z)—N-(3-((1H-pyrrol-2-yl)methylene)-2-oxoindolin-6-yl)-3-(4-chloro-3-(trifluoromethyl)phenyl)-2-oxoimidazolidine-1-carboxamide], for which the melting point was greater than 300 °C. For the same compound, the concentration for half-maximal inhibition (IC50) at FLT-3 turned out to be 569 nM. Besides, the IC50 at aurora B was found to be 1040 nM.
Taken in the same sequence, the figures for `O=C1Nc2cc(NC(=O)N3CCN(c4ccc(C(F)(F)F)cc4)C3=O)ccc2/C1=C/c1ccc[nH]1` [D88, (Z)—N-(3-((1H-pyrrol-2-yl)methylene)-2-oxoindolin-6-yl)-2-oxo-3-(4-(trifluoromethyl)phenyl)imidazolidine-1-carboxamide] were greater than 300 °C, 498 nM and 824 nM.
For `O=C1Nc2cc(NC(=O)N3CCN(c4ccc(F)cc4)C3=O)ccc2/C1=C/c1ccc[nH]1` [D89, (Z)—N-(3-((1H-pyrrol-2-yl)methylene)-2-oxoindolin-6-yl)-3-(4-fluorophenyl)-2-oxoimidazolidine-1-carboxamide], the melting point is greater than 300 °C. The IC50 at FLT-3 stood at 74.1 nM. Also, the IC50 at aurora B is 37.9 nM.
A word on the inhibition: it is the change of the read-out against control, counted positive when it falls. Take `COc1ccc(N2CCN(C(=O)Nc3ccc4c(c3)NC(=O)/C4=C\c3ccc[nH]3)C2=O)cc1` [D91, (Z)—N-(3-((1H-pyrrol-2-yl)methylene)-2-oxoindolin-6-yl)-3-(4-methoxyphenyl)-2-oxoimidazolidine-1-carboxamide]: the melting point is 294 to 299 °C (dec.). At FLT-3 (compound at 1.0 μM, mean values (n=2), read-out: percent inhibition of enzyme catalytic activity, FLT-3 (numbers in parentheses)), the inhibition at 1 µM amounted to 26%. Also, the inhibition at 1 µM at aurora B (compound at 1.0 μM, mean values (n=2), read-out: percent inhibition of enzyme catalytic activity, Aur B (numbers in parentheses)) is 25.3%.
Compound `Cc1ccc(N2CCN(C(=O)Nc3ccc4c(c3)NC(=O)/C4=C\c3ccc[nH]3)C2=O)cc1` [D92, (Z)—N-(3-((1H-pyrrol-2-yl)methylene)-2-oxoindolin-6-yl)-2-oxo-3-p-tolylimida-zolidine-1-carboxamide] returned a melting point greater than 300 °C. Moreover, the IC50 at FLT-3 was determined as 223 nM. Besides, the IC50 at aurora B was determined as 19.3 nM.
Taken in the same sequence, the figures for `CN(C)c1ccc(N2CCN(C(=O)Nc3ccc4c(c3)NC(=O)/C4=C\c3ccc[nH]3)C2=O)cc1` [D93, (Z)—N-(3-((1H-pyrrol-2-yl)methylene)-2-oxoindolin-6-yl)-3-(4-(dimethylamino)-phenyl)-2-oxoimidazolidine-1-carboxamide] were 279 to 284 °C (dec.), 1220 nM and 24.2 nM.
The corresponding values for `COc1ccc(N2CCN(C(=O)Nc3ccc4c(c3)NC(=O)/C4=C\c3[nH]c(C)c(C(=O)O)c3C)C2=O)cc1` [D95, (Z)-5-((6-(3-(4-methoxyphenyl)-2-oxoimidazolidine-1-carboxamido)-2-oxoindolin-3-ylidene)methyl)-2,4-dimethyl-1H-pyrrole-3-carboxylic acid] are 267 to 272 °C (dec.), 39.4 nM and 3.7 nM.
Consider `Cc1[nH]c(/C=C2\C(=O)Nc3cc(NC(=O)N4CCN(C5CC5)C4=O)ccc32)c(C)c1C(=O)O` [D96, (Z)-5-((6-(3-cyclopropyl-2-oxoimidazolidine-1-carboxamido)-2-oxoindolin-3-ylidene)methyl)-2,4-dimethyl-1H-pyrrole-3-carboxylic acid], for which the melting point is greater than 300 °C. The half-inhibitory concentration (IC50) on FLT-3 was 217 nM. The IC50 on aurora B was 3.5 nM.
The compound `O=C1Nc2cccc(NC(=O)c3cccn(-c4ccc(F)cc4)c3=O)c2/C1=C/c1ccc[nH]1` [D103, (Z)—N-(3-((1H-pyrrol-2-yl)methylene)-2-oxoindolin-4-yl)-1-(4-fluorophenyl)-2-oxo-1,2-dihydropyridine-3-carboxamide] gave a melting point greater than 300 °C. The IC50 at FLT-3 is greater than 1000 nM. Besides, the IC50 on aurora B was greater than 1000 nM.
`O=C1Nc2ccc(NC(=O)c3cccn(-c4ccc(F)cc4)c3=O)cc2/C1=C/c1ccc[nH]1` [D104, (Z)—N-(3-((1H-pyrrol-2-yl)methylene)-2-oxoindolin-5-yl)-1-(4-fluorophenyl)-2-oxo-1,2-dihydropyridine-3-carboxamide]: the melting point was greater than 300 °C. Besides, the half-maximal inhibitory concentration (IC50) on FLT-3 was greater than 1000 nM. For the same compound, on aurora B, the half-inhibitory concentration (IC50) is greater than 1000 nM.
